US20250304559A1, “Ether-Linked Antiviral Compounds” (Pfizer Inc., priority 2021, published 2025)
Where two headings read alike, the source gives them in different places.

Assays:
SARS-CoV-2 3CL protease = target: T1, SARS-CoV-2 3CL protease (Severe acute respiratory syndrome coronavirus 2, UniProt P0DTD1); assay: SARS-CoV-2 Coronavirus 3C Protease FRET Assay; format: biochemical; conditions: Morrison equation fit, 15 nM enzyme, 25 μM peptide substrate
T1 construct: measures the activity of full-length SARS-CoV-2 3CL protease

[1] = test system: SARS-CoV-2 (USA_WA1/2020); assay: Antiviral Activity from SARS-CoV-2 Infection (cytopathic effect, Cell Titer-Glo); format: cell-based; conditions: VeroE6 cells enriched for hACE2, MOI 0.002, 3-day incubation, tested alone or with P-gp inhibitor CP-100356 2 μM (table does not say which), read-out: Geometric Mean EC50
[2] = Examples 14-78 and 114 (second head of Table 2), read-out: Geometric Mean Ki (nM) IC50
[3] = Severe acute respiratory syndrome coronavirus 2, Vero C1008, 72 h
[4] = Examples 1-13, 60 minutes at 23° C., read-out: Geometric Mean Ki

Question: How did the Ki (SARS-CoV-2 3CL protease; [2]) turn out when `CC(C)[C@H](NS(=O)(=O)C(F)(F)F)C(=O)N1C[C@H]2[C@@H]([C@H]1C(=O)N[C@@H](C[C@@H]1CC(=O)NC1=O)C(=O)COc1ccc(F)cc1F)C2(C)C` [Example 49, (1R,2S,5S)-N-{(2S)-4-(2,4-difluorophenoxy)-1-[(3R)-2,5-dioxopyrrolidin-3-yl]-3-oxobutan-2-yl}-6,6-dimethyl-3-[N-(trifluoromethanesulfonyl)-L-valyl]-3-azabicyclo[3.1.0]hexane-2-carboxamide] was run?
Answer: 9.93 nM

Question: What about the EC50 [1, 3] of the same molecule?
Answer: 2010 nM

Question: For `COC(=O)N[C@H](C(=O)N1C[C@H]2[C@@H]([C@H]1C(=O)N[C@@H](C[C@@H]1CCNC1=O)C(=O)COc1ccc(F)cc1)C2(C)C)C(C)(C)C` [Example 21, methyl {(2S)-1-[(1R,2S,5S)-2-({(2S)-4-(4-fluorophenoxy)-3-oxo-1-[(3S)-2-oxopyrrolidin-3-yl]butan-2-yl}carbamoyl)-6,6-dimethyl-3-azabicyclo[3.1.0]hexan-3-yl]-3,3-dimethyl-1-oxobutan-2-yl}carbamate], which Ki (SARS-CoV-2 3CL protease; [2]) is on record?
Answer: 2.2 nM

Question: And the EC50 [1, 3]?
Answer: 18.8 nM

Question: What does the source list for `COC(=O)N[C@H](C(=O)N1C[C@H]2[C@@H]([C@H]1C(=O)N[C@@H](C[C@@H]1CCNC1=O)C(=O)COc1ccccc1F)C2(C)C)C(C)(C)C` [Example 22, methyl {(2S)-1-[(1R,2S,5S)-2-({(2S)-4-(2-fluorophenoxy)-3-oxo-1-[(3S)-2-oxopyrrolidin-3-yl]butan-2-yl}carbamoyl)-6,6-dimethyl-3-azabicyclo[3.1.0]hexan-3-yl]-3,3-dimethyl-1-oxobutan-2-yl}carbamate]?
Answer: Ki (SARS-CoV-2 3CL protease; [2]): 4.78 nM; EC50 [1, 3]: 52 nM

Question: With `CC(C)[C@H](NC(=O)C(F)(F)F)C(=O)N1C[C@H]2[C@@H]([C@H]1C(=O)N[C@@H](C[C@@H]1CCNC1=O)C(=O)COc1ccc(F)cc1)C2(C)C` [Example 52, (1R,2S,5S)-N-{(2S)-4-(4-fluorophenoxy)-3-oxo-1-[(3S)-2-oxopyrrolidin-3-yl]butan-2-yl}-6,6-dimethyl-3-[N-(trifluoroacetyl)-L-valyl]-3-azabicyclo[3.1.0]hexane-2-carboxamide] as the molecule, how does the Ki (SARS-CoV-2 3CL protease; [2]) read?
Answer: 10.5 nM

Question: What about the EC50 [1, 3] of the same molecule?
Answer: 73.3 nM

Question: How did the Ki (SARS-CoV-2 3CL protease; [4]) turn out when `CC(C)(C)[C@H](NS(=O)(=O)C(F)(F)F)C(=O)N1C[C@H]2[C@@H]([C@H]1C(=O)N[C@@H](C[C@@H]1CCNC1=O)C(=O)COc1cccc(C(F)(F)F)c1)C2(C)C` [Example 10, (1R,2S,5S)-6,6-dimethyl-3-{3-methyl-N-[(trifluoromethyl)sulfonyl]-L-valyl}-N-{(2S)-3-oxo-1-[(3S)-2-oxopyrrolidin-3-yl]-4-[3-(trifluoromethyl)phenoxy]butan-2-yl}-3-azabicyclo[3.1.0]hexane-2-carboxamide] was run?
Answer: 8.34 nM

Question: What about the EC50 [1, 3] of the same molecule?
Answer: 167 nM

Question: With `COC(=O)N[C@H](C(=O)N1C[C@H]2[C@@H]([C@H]1C(=O)N[C@@H](C[C@@H]1CCNC1=O)C(=O)COc1ccc(F)cc1F)C2(C)C)C(C)(C)C` [Example 24, methyl {(2S)-1-[(1R,2S,5S)-2-({(2S)-4-(2,4-difluorophenoxy)-3-oxo-1-[(3S)-2-oxopyrrolidin-3-yl]butan-2-yl}carbamoyl)-6,6-dimethyl-3-azabicyclo[3.1.0]hexan-3-yl]-3,3-dimethyl-1-oxobutan-2-yl}carbamate] as the molecule, how does the Ki (SARS-CoV-2 3CL protease; [2]) read?
Answer: 1.41 nM

Question: What about the EC50 [1, 3] of the same molecule?
Answer: 17 nM

Question: How did the Ki (SARS-CoV-2 3CL protease; [4]) turn out when `CC(C)(C)[C@H](NS(C)(=O)=O)C(=O)N1C[C@H]2[C@@H]([C@H]1C(=O)N[C@@H](C[C@@H]1CCNC1=O)C(=O)COc1ccc(F)cc1F)C2(C)C` [Example 13, (1R,2S,5S)-N-{(2S)-4-(2,4-difluorophenoxy)-3-oxo-1-[(3S)-2-oxopyrrolidin-3-yl]butan-2-yl}-6,6-dimethyl-3-[3-methyl-N-(methylsulfonyl)-L-valyl]-3-azabicyclo[3.1.0]hexane-2-carboxamide] was run?
Answer: 1.78 nM

Question: What about the EC50 [1, 3] of the same molecule?
Answer: 98.6 nM

Question: What does the source list for `COC(=O)N[C@H](C(=O)N1C[C@H]2[C@@H]([C@H]1C(=O)N[C@@H](C[C@@H]1CCNC1=O)C(=O)COc1cccc(C(F)(F)F)c1)C2(C)C)C(C)(C)C` [Example 17, methyl {(2S)-1-[(1R,2S,5S)-6,6-dimethyl-2-({(2S)-3-oxo-1-[(3S)-2-oxopyrrolidin-3-yl]-4-[3-(trifluoromethyl)phenoxy]butan-2-yl}carbamoyl)-3-azabicyclo[3.1.0]hexan-3-yl]-3,3-dimethyl-1-oxobutan-2-yl}carbamate]?
Answer: Ki (SARS-CoV-2 3CL protease; [2]): < 0.443 nM; EC50 [1, 3]: 13.3 nM

Question: `Cc1noc(OCC(=O)[C@H](C[C@@H]2CCNC2=O)NC(=O)[C@@H]2[C@@H]3[C@H](CN2C(=O)[C@@H](NC(=O)C(F)(F)F)C(C)C)C3(C)C)n1` [Example 76, (1R,2S,5S)-6,6-dimethyl-N-{(2S)-4-[(3-methyl-1,2,4-oxadiazol-5-yl)oxy]-3-oxo-1-[(3S)-2-oxopyrrolidin-3-yl]butan-2-yl}-3-[N-(trifluoroacetyl)-L-valyl]-3-azabicyclo[3.1.0]hexane-2-carboxamide] was tested. Which Ki (SARS-CoV-2 3CL protease; [2]) did it give?
Answer: 3840 nM

Question: And the EC50 [1, 3]?
Answer: > 100000 nM

Question: `CCc1c(OCC(=O)[C@H](C[C@@H]2CCNC2=O)NC(=O)[C@@H]2[C@@H]3[C@H](CN2C(=O)[C@@H](NC(=O)C(F)(F)F)C(C)C)C3(C)C)noc1C` [Example 67, (1R,2S,5S)-N-{(2S)-4-[(4-ethyl-5-methyl-1,2-oxazol-3-yl)oxy]-3-oxo-1-[(3S)-2-oxopyrrolidin-3-yl]butan-2-yl}-6,6-dimethyl-3-[N-(trifluoroacetyl)-L-valyl]-3-azabicyclo[3.1.0]hexane-2-carboxamide] was tested. Which Ki (SARS-CoV-2 3CL protease; [2]) did it give?
Answer: 107 nM

Question: What about the EC50 [1, 3] of the same molecule?
Answer: 1750 nM

Question: With `CC(C)[C@H](NC(=O)C(F)(F)F)C(=O)N1C[C@H]2[C@@H]([C@H]1C(=O)N[C@@H](C[C@@H]1CCNC1=O)C(=O)COc1cnsn1)C2(C)C` [Example 62, (1R,2S,5S)-6,6-dimethyl-N-{(2S)-3-oxo-1-[(3S)-2-oxopyrrolidin-3-yl]-4-[(1,2,5-thiadiazol-3-yl)oxy]butan-2-yl}-3-[N-(trifluoroacetyl)-L-valyl]-3-azabicyclo[3.1.0]hexane-2-carboxamide] as the molecule, how does the Ki (SARS-CoV-2 3CL protease; [2]) read?
Answer: 55.7 nM

Question: And the EC50 [1, 3]?
Answer: 1870 nM

Question: Which results are given for `COCC(=O)[C@H](C[C@@H]1CCNC1=O)NC(=O)C1C[C@H](C(C)(C)C)CCN1C(=O)[C@@H](NS(=O)(=O)C(F)(F)F)C(C)C` (single isomer, unassigned) [Example 77, (2R*,4S*)-4-tert-butyl-N-{(2S)-4-methoxy-3-oxo-1-[(3S)-2-oxopyrrolidin-3-yl]butan-2-yl}-1-[N-(trifluoromethanesulfonyl)-L-valyl]piperidine-2-carboxamide, DIAST-2]?
Answer: Ki (SARS-CoV-2 3CL protease; [2]): > 10800 nM; EC50 [1, 3]: > 100000 nM

Question: What does the source list for `CC(C)(C)[C@H](NS(=O)(=O)C(F)(F)F)C(=O)N1C[C@H]2[C@@H]([C@H]1C(=O)N[C@H](C[C@@H]1CCNC1=O)C(=O)COc1ccc(F)cc1F)C2(C)C` [Example 68, (1R,2S,5S)-N-{(2R)-4-(2,4-difluorophenoxy)-3-oxo-1-[(3S)-2-oxopyrrolidin-3-yl]butan-2-yl}-6,6-dimethyl-3-[3-methyl-N-(trifluoromethanesulfonyl)-L-valyl]-3-azabicyclo[3.1.0]hexane-2-carboxamide]?
Answer: Ki (SARS-CoV-2 3CL protease; [2]): 129 nM; EC50 [1, 3]: 97 nM

Question: Which Ki (SARS-CoV-2 3CL protease; [4]) does the source give for `CC(C)[C@H](NS(=O)(=O)C(F)(F)F)C(=O)N1C[C@H]2[C@@H]([C@H]1C(=O)N[C@@H](C[C@@H]1CCNC1=O)C(=O)COc1cc(C(F)(F)F)nn1C)C2(C)C` [Example 11, (1R,2S,5S)-6,6-dimethyl-N-{(2S)-4-{[1-methyl-3-(trifluoromethyl)-1H-pyrazol-5-yl]oxy}-3-oxo-1-[(3S)-2-oxopyrrolidin-3-yl]butan-2-yl}-3-{N-[(trifluoromethyl)sulfonyl]-L-valyl}-3-azabicyclo[3.1.0]hexane-2-carboxamide] here?
Answer: 13.5 nM

Question: What about the EC50 [1, 3] of the same molecule?
Answer: 2030 nM

Question: Which Ki (SARS-CoV-2 3CL protease; [2]) does the source give for `CC(C)[C@H](NS(C)(=O)=O)C(=O)N1CCC2(CC2)C[C@H]1C(=O)N[C@@H](C[C@@H]1CCNC1=O)C(=O)COc1ccc(F)cc1F` (single isomer, unassigned) [Example 59, (5R*)-N-{(2S)-4-(2,4-difluorophenoxy)-3-oxo-1-[(3S)-2-oxopyrrolidin-3-yl]butan-2-yl}-6-[N-(methanesulfonyl)-L-valyl]-6-azaspiro[2.5]octane-5-carboxamide, DIAST-1] here?
Answer: 9.27 nM

Question: What about the EC50 [1] of the same molecule?
Answer: 299 nM

Question: How did the Ki (SARS-CoV-2 3CL protease; [2]) turn out when `CC(C)[C@H](NC(=O)C(F)(F)F)C(=O)N1C[C@H]2[C@@H]([C@H]1C(=O)N[C@@H](C[C@@H]1CCNC1=O)C(=O)COc1ccc(F)c(F)c1)C2(C)C` [Example 48, (1R,2S,5S)-N-{(2S)-4-(3,4-difluorophenoxy)-3-oxo-1-[(3S)-2-oxopyrrolidin-3-yl]butan-2-yl}-6,6-dimethyl-3-[N-(trifluoroacetyl)-L-valyl]-3-azabicyclo[3.1.0]hexane-2-carboxamide] was run?
Answer: 7.87 nM

Question: And the EC50 [1, 3]?
Answer: 44.3 nM

Question: What does the source list for `CC(C)[C@H](NC(=O)C(F)(F)F)C(=O)N1C[C@H]2[C@@H]([C@H]1C(=O)N[C@@H](C[C@@H]1CCNC1=O)C(=O)COc1cccc(Cl)c1)C2(C)C` [Example 50, (1R,2S,5S)-N-{(2S)-4-(3-chlorophenoxy)-3-oxo-1-[(3S)-2-oxopyrrolidin-3-yl]butan-2-yl}-6,6-dimethyl-3-[N-(trifluoroacetyl)-L-valyl]-3-azabicyclo[3.1.0]hexane-2-carboxamide]?
Answer: Ki (SARS-CoV-2 3CL protease; [2]): 10.7 nM; EC50 [1, 3]: 76.2 nM

Question: With `CC(C)C[C@@H](C(=O)N1C[C@H]2[C@@H]([C@H]1C(=O)N[C@@H](C[C@@H]1CCNC1=O)C(=O)COc1cc(C(F)(F)F)nn1C)C2(C)C)N(C)C(C)C` (single isomer, unassigned) [Example 73, (1R,2S,5S)-6,6-dimethyl-3-[N-methyl-N-(propan-2-yl)-L-leucyl]-N-{(2R*)-4-{[1-methyl-3-(trifluoromethyl)-1H-pyrazol-5-yl]oxy}-3-oxo-1-[(3S)-2-oxopyrrolidin-3-yl]butan-2-yl}-3-azabicyclo[3.1.0]hexane-2-carboxamide, DIAST-2] as the molecule, how does the Ki (SARS-CoV-2 3CL protease; [2]) read?
Answer: 962 nM

Question: What about the EC50 [1] of the same molecule?
Answer: 140 nM
